From US20040063725A1, “Novel n(phenylsulphonyl)glycine derivatives and their therapeutic use” (priority 2001, published 2004)
Where a name gives a salt, the structure may show the parent alone.

Tested on: formaldehyde-induced pain
Assay: formaldehyde-induced pain test in the mouse (formalin test)
Format: in vivo
Conditions: formaldehyde 0.92% in paw, licking time 15 to 30 min
Protocol: The compounds of the present invention were evaluated for their analgesic property in the formaldehyde-induced pain test in the mouse (Shibata, M., Ohkubo, T., Takahashi, H. & R. Inoki. Modified formalin test: characteristic biphasic pain response. Pain, 38. 347-352). In summary, an administration of formaldehyde (0.92% in physiological serum) is made in the front paw and the licking time, which reflects the intensity of the pain, is recorded from 0 to 5 min (1st phase) and from 15 to 30 min (2nd phase) after the injection. The percentage inhibition of the second phase of licking induced by the formaldehyde is given, for some compounds according to the invention, in the following Table: […]

| Compound | % inhibition of the 2nd licking phase (30 mg/kg s.c.) | % inhibition of the 2nd licking phase (10 mg/kg s.c.) | further results |
| --- | --- | --- | --- |
| N-[2-[[[4-(aminoiminomethyl)phenyl]methyl][3-(dimethylamin)propyl]amino]-2-oxoethyl]-2-[[(2,4-dichloro-3-methylphenyl)sulphonyl](2-phenylethyl)amino]acetamide, Dihydrochloride [Example 23] | 98% | – | – |
| Cc1c(Cl)ccc(S(=O)(=O)N(CCc2ccccc2)CC(=O)NCC(=O)N(CCC2CCNCC2)Cc2ccc(C(=N)N)cc2)c1Cl.O=C(O)C(F)(F)F.O=C(O)C(F)(F)F [Example 24, N-[2-[[[4-(aminoiminomethyl)phenyl]methyl](4-piperidinylethyl)amino]-2-oxoethyl]-2-[[(2,4-dichloro-3-methylphenyl)sulphonyl](2-phenylethyl)-amino]acetamide, bis Trifluoroacetate] | – | 76% | – |
| Cc1c(Cl)ccc(S(=O)(=O)N(CCc2ccccc2)CC(=O)NCC(=O)N(CCCCN2CCCC2)CCCc2cnc[nH]2)c1Cl [Example 82, 2-[[(2,4-dichloro-3-methylphenyl)sulphonyl](2-phenylethyl)amino]-N-[2-[[3-(1H-imidazol-5-yl)propyl][4-(1-pyrrolidinyl)butyl]amino]-2-oxo-ethyl]acetamide, Dihydrochloride] | – | – | % inhibition of the 2nd licking phase (10 mg/kg i.p.): 63% |
| Cc1c(Cl)ccc(S(=O)(=O)N(CCc2ccccc2)CC(=O)NCC(=O)N(CCCN(C)C)Cc2ccc(C3=NCCN3)cc2)c1Cl [Example 35, 2-[[(2,4-dichloro-3-methylphenyl)sulphonyl](2-phenylethyl)amino]-N-[2-[[[4-(4,5-dihydro-1H-imidazol-2-yl)phenyl]methyl][3-(dimethylamino)propyl]amino]-2-oxoethyl]acetamide, Dihydrochloride] | – | 92% | – |
| N-[2-[(4-aminobutyl)(4-piperidinylmethyl)amino]-2-oxoethyl]-2-[[(2,4-dichloro-3-methylphenyl)sulphonyl](2-phenylethyl)amino]acetamide, Bis Trifluoroacetate [Example 25] | 87% | – | – |
